The results in this text go back to patent US20090131513A1, “ANTI-INFLAMMATORY MODALITIES” (Novogen Research Pty Ltd., priority 2005, published 2009).

One data set has as its target T1, TX synthase (TXS) (Homo sapiens, UniProt P24557).
T1 construct: endogenous in cells; host or cells: undifferentiated U937 cells
T1 sequence (P24557 1-533): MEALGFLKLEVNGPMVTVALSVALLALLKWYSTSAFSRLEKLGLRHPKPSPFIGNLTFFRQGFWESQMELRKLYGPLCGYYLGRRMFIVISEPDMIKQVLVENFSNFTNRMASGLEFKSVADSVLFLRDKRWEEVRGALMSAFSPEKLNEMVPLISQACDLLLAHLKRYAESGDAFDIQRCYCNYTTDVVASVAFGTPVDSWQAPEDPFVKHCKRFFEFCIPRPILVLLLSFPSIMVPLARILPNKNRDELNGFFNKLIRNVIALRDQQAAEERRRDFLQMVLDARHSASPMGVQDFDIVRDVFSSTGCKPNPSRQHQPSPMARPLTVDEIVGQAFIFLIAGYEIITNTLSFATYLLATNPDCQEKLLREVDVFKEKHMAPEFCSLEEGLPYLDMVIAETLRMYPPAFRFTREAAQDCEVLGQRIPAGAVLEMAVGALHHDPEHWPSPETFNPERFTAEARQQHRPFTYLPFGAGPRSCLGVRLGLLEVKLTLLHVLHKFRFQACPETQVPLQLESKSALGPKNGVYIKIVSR
The data set is described as follows: TXB2 synthesis following addition of exogenous PGH2 to U937 cells. It is filed as cell-based. The conditions noted are these: 1, 10, 100 μM, undifferentiated U937 cells, PGH2 5 μM. As to the method:
To examine effects of test compounds directly on TX synthase (TXS), a different assay system was used. Whereas arachidonic acid (AA) is the substrate for COX, PGH2 is the substrate for TX synthase. To examine directly the effect of these compounds on TXS, exogenous ? elow:
Test compounds at 0 μM, 1 μM, 10 μM and 100 μM (in DMSO) were incubated with undifferentiated U937 cells (6×10^6/ml) for 30 min at 37° C., after which PGH2 (5 μM) was added. After incubation for 10 min, the reaction was terminated by centrifugation and the supernatants were collected and TXB2 production was measured in triplicate by RIA. ANOVA followed by Newman-Keuls multiple comparisons test was used to examine differences between doses and the control values. A statistical significance level of 0.05 was used and differences from control values are indicated by an asterisk (*).

Data set [1] relates to eicosanoid synthesis by the inflamed colon. The data set is described as follows: PGE2 and TXB2 production by cultured colons from DSS colitis mice (Experiment 4). Format: in vivo. As to the method: Groups of mice (n=5) were dosed once daily with Compound 11 mg/kg or vehicle throughout the experiment, and killed either on day 6, 9 or 13. Colons were removed, opened longitudinally and washed in PBS with pen/strep (100 U/ml/100 μg/ml, Invitrogen) with added fungizone (2.5 ug/ml, Invitrogen). They were then cut into small portions and approximately 100 mg colon was placed into one well of a 24-well plate either in the presence or absence of ConA (10 μg/ml, Sigma) containing 1 ml modified RPMIc (pen/strep and fungizone as above) for 18-24 hours. Supernatant was collected, centrifuged and stored at −80° C. PGE2 and TXB2 in the culture supernatants were measured in triplicate by ELISA (Cayman Chemical).

Data set [2] deals with contractile response of the aortic ring to noradrenaline. The data set is described as follows: Vasodilatory activity in the rat aortic ring assay. Further details: species or system rat (Sprague-Dawley). The note with it: test compound 1 μg/ml. As to the method:
The vasodilatory capacity of test compounds was examined ex vivo using the rat aortic ring assay.
Male Sprague-Dawley rats (250±50 g) were euthanized with 80% CO2 and 20% O2. The thoracic aorta was excised and quickly mounted in organ-baths as described (Chin-Dusting et al. 2001). Full concentration-contractile curves were obtained to noradrenaline ([…]) with and without test compounds delivered at a concentration of 1 μg/ml. Experiments were repeated in n=5 different rings from 5 different animals. Only one compound at any one concentration was tested on any one ring from any one animal. Sigmoidal dose response curves were fitted for the data and the logEC50 calculated (Prism 4, GraphPad Software). The difference in these values between the presence and absence of test compound was calculated using a two-tailed paired t test. The effects of β-oestrodiol and vehicle alone were examined as a positive and negative control respectively.

Data set [3] can be described thus: Stability of formulation in CMC 0.1%. Format: physicochemical. The conditions noted are these: seven day period, 4° C., 25° C. and 40° C. As to the method: The formulation of Compound 1 in CMC 0.1% was stable over a seven day period at both 4° C., 25° C. and 40° C. Fresh batches of Compound 1 were supplied after day seven. Bodyweights were measured immediately before administration, then at day eight and again at culling on day 12. All rats were observed daily for signs of toxicity throughout the experimental period. At necropsy, gross examination of the external surface of the body, all orifices and the thoracic and abdominal cavities and their contents was carried out. Liver, kidney, adrenals, spleen and gonads were weighed. Terminal hematology, serum biochemistry and histology of the liver, spleen and bone marrow was done.

The test system of another data set is NFκB promoter activity. Nature of the data set: Inhibition of NFκB promoter activity (β-lactamase reporter) in TNFα-stimulated THP-1 cells. It is filed as cell-based, human. The note with it: 5 h. As to the method:
Human macrophage THP-1 cells, modified to include the β-lactamase reporter gene, were seeded into wells of a 96-well plate (50×10^3 cells/well) in the presence of RPMI 1640 medium (70 μl). TNFα (7.5 ng/ml) and human sera (final concentration of 20%) were added to each well. Plates were incubated for 5 h at 37° C. to allow for NFkB-stimulated β-lactamase production. LiveBLAzer™ FRET B/G Substrate (CCF4-AM) was then added to assay for β-lactamase activity. Once CCFA-AM enters a cell, it is converted to negatively charged CCF4 by endogenous esterases. Excitation of this substrate at 409 nm leads to efficient FRET between the coumarin and fluorescein moieties, resulting in a green fluorescence detectable at 530 nm. The presence of β-lactamase leads to cleavage of CCF4 and results in a loss of FRET, resulting in a robust blue fluorescent signal detectable at 460 nm. Thus, activity of beta-lactamase (a marker of NFkB-promoter activity) is measured as a product to substrate ratio (blue/green fluorescence ratio: 460 nm/530 nm).

In another data set the test system is female BALB/c mice. The data set is described as follows: Absence of gastrointestinal toxicity, gavage for 10 days. It is filed as in vivo. The conditions noted are these: 5 mg/kg via gavage for 10 days. As to the method:
Compound 2 at 5 mg/kg (n=3) or vehicle (PEG 400:PBS1:1; n=2) was administered via gavage to female BALB/c mice for 10 days. […] Histology of cecum and colon were normal.
The diastereoisomeric mixture of Compounds 3a and 3b in PEG 400:PBS1:1 was administered to 7 week old female BALB/c mice (n=8) by gavage at 20 mg/kg daily for 10 days. There was no vehicle control group for comparison.
Compound 4 at 5 mg/kg (n=3) or vehicle (n=2, PEG:PBS 1:1) was administered via gavage to female BALB/c mice for 10 days. […] Histology of cecum and colon were normal.

Data set [4] relates to inflammed rat air pouches (serum-treated zymozan). The data set is described as follows: Rat air pouch assay. The conditions noted are these: At 1 mM application. Format: in vivo, rats (Dark Agouti).

For the compound `O=C1c2ccc(O)c(Br)c2OCC1c1ccc(O)cc1` (stereo not shown) [Compound 1, 3-(4-hydroxyphenyl)-7-hydroxy-8-bromo-chroman-4-one], the “thromboxane synthase inhibition (TXB2 synthesis after exogenous PGH2), selectivity in words” value on TX synthase (TXS) was “selective thromboxane synthase inhibitors”. The “PGE2 and TXB2 responses of colons cultured in the presence of ConA” value in data set [1] (ConA 10 μg/ml) is recorded as “reduce these responses, although not significantly so”. For the same compound, the “TXB2 production by colons versus DSS + vehicle” value in data set [1] (cultured in the absence of mitogenic stimulation, day 6 and day 9 (p<0.05)) is “less TXB2”. Besides, the “PGE2 production by colons versus DSS + vehicle” value in data set [1] (cultured in the absence of mitogenic stimulation, day 9 and day 13) was “less PGE2”. Moreover, in data set [2], the “contractile response (logEC50) of the aortic ring to noradrenaline compared with vehicle” value is “significantly inhibited”. Also, in data set [3], the “stability of the formulation” value is “stable”.
As to `Oc1ccc(C2COc3c(ccc(O)c3O)C2O)cc1` (stereo not shown) [Compound 2], on TX synthase (TXS), the “thromboxane synthase inhibition (TXB2 synthesis after exogenous PGH2), selectivity in words” value was “selective thromboxane synthase inhibitors”. In addition, in the data set with NFκB promoter activity, the “inhibition of NFκB compared to vehicle control” value was “significantly (p<0.001) inhibited”. Besides, in the data set on female BALB/c mice, the adverse clinical signs result is “no adverse clinical signs”; the “body weight changes versus vehicle” value is listed as “similar”; the “gross pathological changes at necropsy” value is “no gross pathological changes”; the “histology of cecum and colon” value is reported as “normal”. The “number of polymorphs in the tissue sections, in words” value in data set [4] is recorded as “suppressed the number of polymorphs”.
As to `O=C1c2cc(Cl)c(O)cc2OCC1c1ccc(O)cc1` (stereo not shown) [Compound 4], the “thromboxane synthase inhibition (TXB2 synthesis after exogenous PGH2), selectivity in words” value on TX synthase (TXS) is recorded as “selective thromboxane synthase inhibitors”. In the data set on female BALB/c mice, the adverse clinical signs entry was “no adverse clinical signs”; the “body weight changes versus vehicle” value was “similar”; the “gross pathological changes at necropsy” value is “no gross pathological changes”; the “histology of cecum and colon” value is recorded as “normal”. The “number of polymorphs in the tissue sections, in words” value in data set [4] is recorded as “suppressed the number of polymorphs”.
